Test results reported in PubChem BioAssay AID1963980 (Molecular Pharmacology Branch, DTP, NCI, 2024).

Tested on: 475296-252-R-J1-PDC spheroid viability
Assay: Anticancer human tumor 475296-252-R-J1-PDC patient-derived rectal carcinoma cell line growth inhibition [PI3K]
Settings: spheroids with HUVEC and MSC; for IC50: curve of first compound; for viability, T/C: stronger effect = lower value
Procedure, shortened: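 Viability of mixed-cell spheroids was determined after exposure to pairwise combinations, one partner being inavolisib, alpelisib, duvelisib or copanlisib. Highest tested concentration matched clinical Cmax where known and 10 microM where not, descending in half-log steps.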

[1] = second compound 0.0316 µM, first compound 0.0316 µM
[2] = second compound 0.0316 µM, first compound 0.1 µM
[3] = second compound 0.0316 µM, first compound 0.316 µM
[4] = second compound 0.0316 µM, first compound 1 µM
[5] = second compound 0.0316 µM, first compound 3.16 µM
[6] = second compound 0.0316 µM, first compound 10 µM
[7] = second compound 0.1 µM, first compound 0.0316 µM
[8] = second compound 0.1 µM, first compound 0.1 µM
[9] = second compound 0.1 µM, first compound 0.316 µM
[10] = second compound 0.1 µM, first compound 1 µM
[11] = second compound 0.1 µM, first compound 3.16 µM
[12] = second compound 0.1 µM, first compound 10 µM
[13] = second compound 0.316 µM, first compound 0.0316 µM
[14] = second compound 0.316 µM, first compound 0.1 µM
[15] = second compound 0.316 µM, first compound 0.316 µM
[16] = second compound 0.316 µM, first compound 1 µM
[17] = second compound 0.316 µM, first compound 3.16 µM
[18] = second compound 0.316 µM, first compound 10 µM
[19] = second compound 1 µM, first compound 0.0316 µM
[20] = second compound 1 µM, first compound 0.1 µM
[21] = second compound 1 µM, first compound 0.316 µM
[22] = second compound 1 µM, first compound 1 µM
[23] = second compound 1 µM, first compound 3.16 µM
[24] = second compound 1 µM, first compound 10 µM
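Note: spheroids exposed to agents for seven days before readout.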

## Cn1ncc(Cl)c1-c1cc(C(=O)NC(CN)Cc2cccc(F)c2)sc1Cl (centres undefined) + COc1c(OCCCN2CCOCC2)ccc2c3n(c(=NC(=O)c4cnc(N)nc4)nc12)CCN3
Second compound 0.00316 µM
  IC50: > 10 µM
Second compound 0.01 µM
  IC50: > 10 µM
Second compound 0.0316 µM
  IC50: 2.09 µM
Second compound 0.1 µM
  IC50: 2.92 µM
Second compound 0.316 µM
  IC50: 1.36 µM
Second compound 1 µM
  IC50: 0.888 µM
Second compound 0.00316 µM, first compound 0.0316 µM
  viability, T/C: 86.5%
Second compound 0.00316 µM, first compound 0.1 µM
  viability, T/C: 70.6%
Second compound 0.00316 µM, first compound 0.316 µM
  viability, T/C: 80.1%
Second compound 0.00316 µM, first compound 1 µM
  viability, T/C: 67.9%
Second compound 0.00316 µM, first compound 3.16 µM
  viability, T/C: 66.1%
Second compound 0.00316 µM, first compound 10 µM
  viability, T/C: 55.7%
Second compound 0.01 µM, first compound 0.0316 µM
  viability, T/C: 93.4%
Second compound 0.01 µM, first compound 0.1 µM
  viability, T/C: 91.5%
Second compound 0.01 µM, first compound 0.316 µM
  viability, T/C: 62.1%
Second compound 0.01 µM, first compound 1 µM
  viability, T/C: 58.5%
Second compound 0.01 µM, first compound 3.16 µM
  viability, T/C: 59.4%
Second compound 0.01 µM, first compound 10 µM
  viability, T/C: 59.2%
[1]
  viability, T/C: 82.9%
[2]
  viability, T/C: 89.4%
[3]
  viability, T/C: 90.4%
[4]
  viability, T/C: 59%
[5]
  viability, T/C: 53%
[6]
  viability, T/C: 36.9%
[7]
  viability, T/C: 80%
[8]
  viability, T/C: 79.4%
[9]
  viability, T/C: 72.6%
[10]
  viability, T/C: 56.4%
[11]
  viability, T/C: 54.3%
[12]
  viability, T/C: 27.1%
[13]
  viability, T/C: 69.2%
[14]
  viability, T/C: 69.4%
[15]
  viability, T/C: 62.1%
[16]
  viability, T/C: 54%
[17]
  viability, T/C: 39.5%
[18]
  viability, T/C: 22.5%
[19]
  viability, T/C: 61.4%
[20]
  viability, T/C: 53.8%
[21]
  viability, T/C: 67.8%
[22]
  viability, T/C: 42.4%
[23]
  viability, T/C: 36.1%
[24]
  viability, T/C: 16.4%

## C=CC(=O)N1CCN(c2nc(=O)n(-c3c(C)ccnc3C(C)C)c3nc(-c4c(O)cccc4F)c(F)cc23)C(C)C1 (centres undefined) + Cc1nc(NC(=O)N2CCCC2C(N)=O)sc1-c1ccnc(C(C)(C)C(F)(F)F)c1
Second compound 0.0316 µM
  IC50: > 10 µM
Second compound 0.1 µM
  IC50: > 10 µM
Second compound 0.316 µM
  IC50: > 10 µM
Second compound 1 µM
  IC50: > 10 µM
Second compound 3.16 µM
  IC50: > 10 µM
Second compound 10 µM
  IC50: > 10 µM
[1]
  viability, T/C: 90%
[2]
  viability, T/C: 79.2%
[3]
  viability, T/C: 99.9%
[4]
  viability, T/C: 89.7%
[5]
  viability, T/C: 106%
[6]
  viability, T/C: 102%
[7]
  viability, T/C: 105%
[8]
  viability, T/C: 75.8%
[9]
  viability, T/C: 106%
[10]
  viability, T/C: 82%
[11]
  viability, T/C: 104%
[12]
  viability, T/C: 108%
[13]
  viability, T/C: 90.4%
[14]
  viability, T/C: 107%
[15]
  viability, T/C: 96.4%
[16]
  viability, T/C: 103%
[17]
  viability, T/C: 96.8%
[18]
  viability, T/C: 95%
[19]
  viability, T/C: 88%
[20]
  viability, T/C: 94.1%
[21]
  viability, T/C: 99.8%
[22]
  viability, T/C: 97.5%
[23]
  viability, T/C: 109%
[24]
  viability, T/C: 95.8%
Second compound 3.16 µM, first compound 0.0316 µM
  viability, T/C: 83.6%
Second compound 3.16 µM, first compound 0.1 µM
  viability, T/C: 85%
Second compound 3.16 µM, first compound 0.316 µM
  viability, T/C: 95.2%
Second compound 3.16 µM, first compound 1 µM
  viability, T/C: 87.2%
Second compound 3.16 µM, first compound 3.16 µM
  viability, T/C: 92.9%
Second compound 3.16 µM, first compound 10 µM
  viability, T/C: 93.8%
Second compound 10 µM, first compound 0.0316 µM
  viability, T/C: 94.6%
Second compound 10 µM, first compound 0.1 µM
  viability, T/C: 87.8%
Second compound 10 µM, first compound 0.316 µM
  viability, T/C: 95.5%
Second compound 10 µM, first compound 1 µM
  viability, T/C: 94.2%
Second compound 10 µM, first compound 3.16 µM
  viability, T/C: 95.2%
Second compound 10 µM, first compound 10 µM
  viability, T/C: 80.6%
